Values of other authors in PMC7464078, “CYP3A Excipient-Based Microemulsion Prolongs the Effect of Magnolol on Ischemia Stroke Rats” (Pharmaceutics, 2020).
Where two headings read alike, the source gives them in different places. Each block holds one molecule with its values, some of them ahead of it.

Tests used:
[1] = parameters: method as in PMID 21638244
CYP3A = system: CYP3A; parameters: method as in PMID 14716751, PMID 11137342; details: hepatocytes and liver microsomes

Molecule: C=CCc1ccc(O)c(-c2cc(CC=C)ccc2O)c1 [Magnolol, 5,5′-diallyi-2,2′-dihydroxybiphenyl]
- Inhibition of human CYP3A4 (human CYP3A4; in vitro): weak inhibitors
- Water solubility (at 25 °C): 1.24 µg/mL
- Solubility in dimethyl sulfoxide (ref Item No. 14233, Cyman Chemical): approximately 16 mg/mL
- Inhibition of rat CYP3A (rat CYP3A; in vitro): weak inhibitors
- Bioavailability [1]: 4%
- Inhibition of rat CYP1A2 (rat CYP1A2; in vitro): relatively strong inhibitors
- Inhibition of rat CYP2E1 (rat CYP2E1; in vitro): relatively strong inhibitors

- Inhibition of human CYP3A4 (human CYP3A4): weak inhibitors
- Inhibition of rat CYP3A (rat CYP3A): weak inhibitors
- Inhibition of rat CYP1A2 (rat CYP1A2): relatively strong inhibitors
- Inhibition of rat CYP2E1 (rat CYP2E1): relatively strong inhibitors
Molecule: C=CCc1ccc(O)c(-c2ccc(O)c(CC=C)c2)c1 [honokiol]

- Effect on CYP3A activity (CYP3A): inhibited
Molecule: Tween-80
